These results are taken from patent US20210290676A1, “IMPROVING THE EFFICACY AND SAFETY OF ADOPTIVE CELLULAR THERAPIES” (University of Southern California, priority 2018, published 2021).

Common to all, as to assay type: cell-based, human
Test [1] concerns CD45RA+CCR7+CD62L+ T cells. As to the kind of experiment: Flow cytometry for CD45RA, CCR7 and CD62L on inhibitor-treated T cells (all T cells). The conditions noted are these: cells cultured for 14 days. How it is done:
(§1) DAY 0: Blood was obtained from unidentified donor. After RBC lysis, PBMC were collected using Ficoll-Hypaque separation. […] T cells were cultured in three different conditions: • 1. XVIVO 15 medium (Lonza) with IL2 50 IU/ml, CD3 antibody (30 ng/ml) and CD28 antibody (30 ng/ml). • 2. XVIVO 15 medium (Lonza) with CD3 antibody (30 ng/ml) and CD28 antibody (30 ng/ml). • 3. XVIVO 15 medium (Lonza) with IL2 50 IU/ml DAY 1: Cells were plated in a 6-well plate at a density of 1 million cells in 2 ml/of media (as described above) and treated with different inhibitors
(§2) A second aliquot of the cells cultured for 13 days with all the treatments listed above (1-21) was washed with PBS+1% FBS, stained with CD8-PerCP, CD45RA-FITC, CCR7-PE and CD62L-APC ([…] for each of 4 antibodies) at 4° C. for 1 h, washed twice with […] and analyzed on flow cytometer to check if these drugs are enriching T stem cells showing surface expression of CD8+CD45RA+CCR7+CD62L+.
(§3) Day 0: Blood was obtained from unidentified donor. After RBC lysis, PBMC were collected using Ficoll-Hypaque separation. 200 million T cells were isolated from PBMCs using CD3 microbeads. T cells were cultured overnight in XVIVO 15 medium (Lonza) with IL2 (50 IU/ml), 30 ng/ml of CD3 and CD28 antibodies
(§4) Day 1: Cells were plated in 24-well plates at a density of 0.3 million cells/ml in each well and treated with different drugs.
(§5) On day 7, culture medium was replaced with fresh medium with fresh drugs.
(§6) On day 13, culture medium was replaced with fresh medium and fresh drugs. Half of the cells were transferred to 6-well plates.
(§7) A second aliquot of the cells cultured for 14 days with all the treatments listed above was washed with PBS+1% FBS, stained with CD8-PerCP, CD45RA-FITC, CCR7-PE and CD62L-APC (5 ul/100 ul/sample for each of 4 antibodies) at 4° C. for 1 h, washed twice with PBS+1% FBS and analyzed on flow cytometer to check if these drugs are enriching for T cells showing surface expression of CD8+CD45RA+CCR7+CD62L+.
(A flow cytometer gives signals particle by particle.)

The subject of test [2] is CD8+CD45RA+CCR7+CD62L+ T cells. Briefly: Flow cytometry for CD8, CD45RA, CCR7 and CD62L on inhibitor-treated T cells. Conditions: cells cultured for 14 days. How it is done: as §1, §2, §3, §4, §5, §6, §7
Test [3] relates to Pgp+ (DiOC2(3)-dye effluxing) T cells. Briefly: DiOC2(3) dye efflux flow cytometry of inhibitor-treated T cells. The conditions noted are these: treatment for 13 days, IL2 + CD3 and CD28 antibodies. Here is the method:
(§8) The use of P-glycoprotein (Pgp)-mediated efflux of DiOC2(3) to isolate stem like T cells for adoptive cellular therapy has been described in application no. […] In the following examples, DiOC2(3) staining was used to study the effect of different inhibitors on generation of stem like T cells.
as §1
(§9) The cell growth medium was changed in 6-well plates and fresh drugs were added at same concentration for one more week.
(§10) […] (DAY 11): Culture medium was changed and fresh drugs were added in 6-well plates.
(§11) Subsequently, cells were washed with RPMI medium and dye was effluxed at 37° C. for 90 min. Cells were washed with […], stained with CD62L-APC (5 μl/100 μl/sample) at 4° C. for 1 h, washed twice with PBS+1% FBS and analyzed on flow cytometer to check if these drugs treatment leads to increase in Pgp+/CD62L positive population.
as §3, §4, §5, §6
(§12) Day 14: An aliquot of cells with all the treatments listed above (for 13 days) was used to stain the cells with DiOC2(3) (60 ng/ml in RPMI medium) at 4° C. for 40 min, washed with RPMI medium, DiOC2(3) dye was effluxed at 37° C. for 90 min, washed with PBS+1% FBS, stained with CD62L-APC antibody. CD62L is a marker for resting T cells. (5 μl/100 μl/sample) at 4° C. for 1 h, washed twice with PBS+1% FBS and analyzed on flow cytometer to check if these drugs are affecting the dye-effluxing or Pgp+ (i.e., DiOC2(3)-dull) T-cell population.

For test [4], the system named is Pgp+ (DiOC2(3)-dye effluxing cells) and CD62L+ T cells. As to the kind of experiment: DiOC2(3) dye efflux plus CD62L-APC staining, flow cytometry of inhibitor-treated T cells. The conditions noted are these: treatment for 13 days, IL2 + CD3 and CD28 antibodies. How it is done:
as §8, §1, §9, §10, §11, §3, §4, §5, §6, §12

Consider `COc1cc(-c2cn(C)c(=O)c3cnccc23)c(OC)cc1CN(C)C` [B9564], for which the “GATE P6 CD45RA(FITC)+, CCR7 (PE)+, CD62L(APC)” value (“GATE P6 CD45RA(FITC)+, CCR7” for short) in test [1] (100 nM) is listed as 63.27%; in test [1] (500 nM), 73.75%. Besides, the “GATE P4 CD8(PerCP)+, CD45RA(FITC)+, CCR7 (PE)+, CD62L(APC)” value (“GATE P4 CD8(PerCP)+, CD45RA(FITC)+, CCR7” below) was determined as 73.18% in test [2] (100 nM) and 83.31% in test [2] (500 nM). Besides, the “p2: pgp+ from Live cells” value in test [3] (100 nM) was 13.39; in test [3] (500 nM), 15.56. Further, the “p5: double +ve pgp+ and CD62L-APC+ from Live cells” value (“p5: double +ve pgp+ and CD62L-APC+” below) is listed as 2.53 in test [4] (100 nM) and 3.03 in test [4] (500 nM).

`CCc1sc(N)nc1-c1ccc(OC)cc1` [CBFB]: the results for the “GATE P6 CD45RA(FITC)+, CCR7” value in test [1] (500 nM) and in test [1] (1 μM) were 64.71% and 65.61%, respectively. In addition, the “GATE P4 CD8(PerCP)+, CD45RA(FITC)+, CCR7” value is listed as 74.77% in test [2] (500 nM) and 74.12% in test [2] (1 μM). Moreover, the “p2: pgp+ from Live cells” value in test [3] (500 nM) was 16.01; in test [3] (1 μM) it was 20.93. The “p5: double +ve pgp+ and CD62L-APC+” value stood at 2.85 in test [4] (500 nM) and 3.56 in test [4] (1 μM).

On to `CCS(=O)(=O)N1CCC([C@@H](C)n2c(C)c(C(=O)NCc3c(OC)cc(C)[nH]c3=O)c3ccccc32)CC1` [CP1169], for which the “GATE P6 CD45RA(FITC)+, CCR7” value in test [1] (100 nM) is 70.48%; in test [1] (200 nM), 66.23%. For the same compound, the “GATE P4 CD8(PerCP)+, CD45RA(FITC)+, CCR7” value in test [2] (100 nM) worked out at 81.07%; in test [2] (200 nM), 75.83%. Moreover, the “p2: pgp+ from Live cells” value in test [3] (100 nM) stood at 25.52; in test [3] (200 nM), 30.65. The “p5: double +ve pgp+ and CD62L-APC+” value came out at 4.68 in test [4] (100 nM) and 6.4 in test [4] (200 nM).

In the case of `COc1cc(C)[nH]c(=O)c1CNC(=O)c1c(C)n([C@H](C)C2CCOCC2)c2ccccc12` [CPI360], the results for the “GATE P6 CD45RA(FITC)+, CCR7” value in test [1] (100 nM) and in test [1] (500 nM) were 70.85% and 69.62%, respectively. Also, the “GATE P4 CD8(PerCP)+, CD45RA(FITC)+, CCR7” value in test [2] (100 nM) is 81.01%; in test [2] (500 nM) it was 81.26%. The “p2: pgp+ from Live cells” value in test [3] (100 nM) amounted to 25.15; in test [3] (500 (unit not given)), 35.55. The “p5: double +ve pgp+ and CD62L-APC+” value in test [4] (100 nM) is 5.82; in test [4] (500 (unit not given)), 11.11.

In the case of `CS(=O)(=O)c1ccc(-c2cnc(NCc3ccco3)n3cnnc23)cc1` [EED226], the “GATE P6 CD45RA(FITC)+, CCR7” value in test [1] (500 nM) and in test [1] (1 μM) was 60.45% each time. The “GATE P4 CD8(PerCP)+, CD45RA(FITC)+, CCR7” value in test [2] (500 nM) stood at 70.21%; in test [2] (1 μM) it was 74.83%. Besides, the “p2: pgp+ from Live cells” value in test [3] (500 nM) came to 37.6; in test [3] (1 μM), 43.53. The “p5: double +ve pgp+ and CD62L-APC+” value is 10.41 in test [4] (500 nM) and 11.82 in test [4] (1 μM).

Regarding `CCN(c1cc(C#CCN2CCOCC2)cc(C(=O)NCc2c(C)cc(C)[nH]c2=O)c1C)[C@H]1CC[C@H](N(C)CCOC)CC1` [EPZ011989], the results for the “GATE P6 CD45RA(FITC)+, CCR7” value in test [1] (500 nM) and in test [1] (1 μM) were 57.62% and 58.31%, respectively. Also, the results for the “GATE P4 CD8(PerCP)+, CD45RA(FITC)+, CCR7” value in test [2] (500 nM) and in test [2] (1 μM) were 70.63% and 72.83%, respectively. Moreover, the “p2: pgp+ from Live cells” value in test [3] (500 nM) came to 64.39; in test [3] (1 μM), 62.54. Also, the “p5: double +ve pgp+ and CD62L-APC+” value came to 18.77 in test [4] (500 nM) and 16.8 in test [4] (1 μM).

For the compound `CC[C@H](C)n1cc(C)c2c(C(=O)NCc3c(C)cc(C)[nH]c3=O)cc(-c3ccc(N4CCNCC4)nc3)cc21` [GSK126], the “GATE P6 CD45RA(FITC)+, CCR7” value in test [1] (100 nM) came to 67.75%; in test [1] (500 nM), 67.65%. Further, the “GATE P4 CD8(PerCP)+, CD45RA(FITC)+, CCR7” value in test [2] (100 nM) is reported as 76.44%; in test [2] (500 nM) it was 79.6%. Also, the “p2: pgp+ from Live cells” value in test [3] (100 nM) came out at 36.37; in test [3] (500 nM), 26.61. The “p5: double +ve pgp+ and CD62L-APC+” value in test [4] (100 nM) was 8.83; in test [4] (500 nM) it was 8.08.
